# Laboratory results as given in ChEMBL document CHEMBL4411307, “N,N'-diaryl-bishydrazones in a biphenyl platform: Broad spectrum antifungal agents” (Eur J Med Chem, 2019).
# The source made the active and inactive calls. The calls are words filed in the database; no cut-off is given here.
# How the values were obtained:
# [1] = Selectivity index, ratio of compound concentration showing <20 to <30% hemolysis in mouse RBC to MIC for Candida krusei ATCC 6258; type: toxicity; settings: mouse red blood cells (RBC), read-out: Selectivity Index
# [2] = Selectivity index, ratio of CC50 for human A549 cells to MIC for Candida parapsilosis ATCC 22019; type: toxicity; settings: read-out: Selectivity Index
# [3] = Hemolytic activity in mouse RBC at 1.95 ug/ml after 1 hr relative to control; type: ADME, cell-based, Erythrocyte; settings: red blood cells (erythrocytes), read-out: Activity
# Candida albicans [4] = assay: Antifungal activity against fluconazole/ITC-resistant Candida albicans ATCC 90819 measured after 48 hrs by CLSI M27-A3 protocol based method; type: functional; settings: ATCC 90819, 48 h
# BEAS-2B = assay: Cytotoxicity against human BEAS2B cells after 24 hrs by resazurin based assay; type: cell-based
# [5] = Hemolytic activity in mouse RBC at 7.8 ug/ml after 1 hr relative to control; type: ADME, cell-based, Erythrocyte; settings: red blood cells (erythrocytes), read-out: Activity
# [6] = Selectivity index, ratio of compound concentration showing <20 to <30% hemolysis in mouse RBC to MIC for fluconazole/ITC-resistant Candida albicans ATCC 90819; type: toxicity; settings: red blood cells (erythrocytes), read-out: Selectivity Index
# [7] = Hemolytic activity in mouse RBC at […] after 1 hr relative to control; type: ADME, cell-based, Erythrocyte; settings: red blood cells (erythrocytes), read-out: Activity; further: tested at 0.48 µg/mL
# [8] = Selectivity index, ratio of compound concentration showing <20 to <30% hemolysis in mouse RBC to MIC for fluconazole/ITC-resistant Candida albicans ATCC MYA-1003; type: toxicity; settings: mouse red blood cells (RBC), read-out: Selectivity Index
# [9] = Selectivity index, ratio of compound concentration showing <20 to <30% hemolysis in mouse RBC to MIC for fluconazole/ITC-resistant Candida albicans ATCC 10231; type: toxicity; settings: red blood cells (erythrocytes), read-out: Selectivity Index
# Candida albicans [10] = assay: Antifungal activity against fluconazole/ITC-resistant Candida albicans ATCC MYA-1237 measured after 48 hrs by CLSI M27-A3 protocol based method; type: functional; settings: ATCC MYA-1237, 48 h
# [11] = Selectivity index, ratio of CC50 for human A549 cells to MIC for fluconazole/ITC-resistant Candida albicans ATCC 10231; type: toxicity; settings: read-out: Selectivity Index
# [12] = Selectivity index, ratio of compound concentration showing <20 to <30% hemolysis in mouse RBC to MIC for Candida glabrata ATCC 2001; type: toxicity; settings: mouse red blood cells (RBC), read-out: Selectivity Index
# [13] = Selectivity index, ratio of compound concentration showing <20 to <30% hemolysis in mouse RBC to MIC for fluconazole/ITC-resistant Candida albicans ATCC MYA-1237; type: toxicity; settings: mouse red blood cells (RBC), read-out: Selectivity Index
# Candida albicans [14] = assay: Antifungal activity against fluconazole/ITC-resistant Candida albicans ATCC 64124 measured after 48 hrs by CLSI M27-A3 protocol based method; type: functional; settings: ATCC 64124, 48 h
# Aspergillus flavus = assay: Antifungal activity against Aspergillus flavus ATCC MYA-3631 measured after 48 hrs by CLSI M38-A2 protocol based method; type: functional; settings: ATCC MYA-3631, 48 h
# [15] = Hemolytic activity in mouse RBC at […] ug/ml after 1 hr relative to control; type: ADME, cell-based, Erythrocyte; settings: red blood cells (erythrocytes), read-out: Activity
# Nakaseomyces glabratus = assay: Antifungal activity against Candida glabrata ATCC 2001 measured after 48 hrs by CLSI M27-A3 protocol based method; type: functional; settings: CBS 138, 48 h
# Candida albicans [16] = assay: Antifungal activity against fluconazole/ITC-susceptible Candida albicans ATCC MYA-2876 measured after 48 hrs by CLSI M27-A3 protocol based method; type: functional; settings: ATCC MYA-2876, 48 h
# [17] = Hemolytic activity in mouse RBC at 31.3 ug/ml after 1 hr relative to control; type: ADME, cell-based, Erythrocyte; settings: red blood cells (erythrocytes), read-out: Activity
# [18] = Selectivity index, ratio of compound concentration showing <20 to <30% hemolysis in mouse RBC to MIC for fluconazole/ITC-susceptible Candida albicans ATCC MYA-2876; type: toxicity; settings: red blood cells (erythrocytes), read-out: Selectivity Index
# [19] = Selectivity index, ratio of compound concentration showing <20 to <30% hemolysis in mouse RBC to MIC for Aspergillus nidulans ATCC 38163; type: toxicity; settings: mouse red blood cells (RBC), read-out: Selectivity Index
# Candida albicans [20] = assay: Antifungal activity against fluconazole/ITC-resistant Candida albicans ATCC 10231 measured after 48 hrs by CLSI M27-A3 protocol based method; type: functional; settings: ATCC 10231, 48 h
# [21] = Selectivity index, ratio of compound concentration showing <20 to <30% hemolysis in mouse RBC to MIC for fluconazole/ITC-susceptible Candida albicans ATCC MYA-2310; type: toxicity; settings: mouse red blood cells (RBC), read-out: Selectivity Index
# [22] = Selectivity index, ratio of CC50 for human A549 cells to MIC for fluconazole/ITC-resistant Candida albicans ATCC MYA-1003; type: toxicity; settings: read-out: Selectivity Index
# [23] = Selectivity index, ratio of CC50 for human A549 cells to MIC for fluconazole/ITC-susceptible Candida albicans ATCC MYA-2310; type: toxicity; settings: read-out: Selectivity Index
# Candida albicans [24] = assay: Antifungal activity against fluconazole/ITC-resistant Candida albicans ATCC MYA-1003 measured after 48 hrs by CLSI M27-A3 protocol based method; type: functional; settings: ATCC MYA-1003, 48 h
# [25] = Selectivity index, ratio of CC50 for human A549 cells to MIC for fluconazole/ITC-susceptible Candida albicans ATCC MYA-2876; type: toxicity; settings: read-out: Selectivity Index
# Candida albicans [26] = assay: Antifungal activity against fluconazole/ITC-susceptible Candida albicans ATCC MYA-2310 measured after 48 hrs by CLSI M27-A3 protocol based method; type: functional; settings: ATCC MYA-2310, 48 h
# [27] = Selectivity index, ratio of compound concentration showing <20 to <30% hemolysis in mouse RBC to MIC for Aspergillus terreus ATCC MYA-3633; type: toxicity; settings: mouse red blood cells (RBC), read-out: Selectivity Index
# Pichia kudriavzevii = assay: Antifungal activity against Candida krusei ATCC 6258 measured after 48 hrs by CLSI M27-A3 protocol based method; type: functional; settings: ATCC 6258, 48 h
# [28] = Hemolytic activity in mouse RBC at 62.5 ug/ml after 1 hr relative to control; type: ADME, cell-based, Erythrocyte; settings: red blood cells (erythrocytes), read-out: Activity
# [29] = Selectivity index, ratio of CC50 for human A549 cells to MIC for fluconazole/ITC-resistant Candida albicans ATCC 64124; type: toxicity; settings: read-out: Selectivity Index
# A549 = assay: Cytotoxicity against human A549 cells after 24 hrs by resazurin based assay; type: cell-based; settings: a549, 24 h
# [30] = Selectivity index, ratio of CC50 for human A549 cells to MIC for fluconazole/ITC-resistant Candida albicans ATCC MYA-1237; type: toxicity; settings: read-out: Selectivity Index
# Aspergillus nidulans = assay: Antifungal activity against Aspergillus nidulans ATCC 38163 measured after 48 hrs by CLSI M38-A2 protocol based method; type: functional; settings: ATCC 38163, 48 h
# Enterococcus = assay: Antibacterial activity against vancomycin-resistant Enterococcus; type: functional, organism-based
# Staphylococcus aureus = assay: Antibacterial activity against methicillin-resistant Staphylococcus aureus; type: functional, organism-based
# [31] = Selectivity index, ratio of CC50 for human A549 cells to MIC for Aspergillus terreus ATCC MYA-3633; type: toxicity; settings: read-out: Selectivity Index
# [32] = Selectivity index, ratio of CC50 for human A549 cells to MIC for fluconazole/ITC-resistant Candida albicans ATCC 90819; type: toxicity; settings: read-out: Selectivity Index
# [33] = Selectivity index, ratio of CC50 for human A549 cells to MIC for Candida krusei ATCC 6258; type: toxicity; settings: read-out: Selectivity Index
# Candida parapsilosis = assay: Antifungal activity against Candida parapsilosis ATCC 22019 measured after 48 hrs by CLSI M27-A3 protocol based method; type: functional; settings: Lodderomyces parapsilosis, ATCC 22019, 48 h
# Listeria monocytogenes = assay: Antibacterial activity against Listeria monocytogenes; type: functional, organism-based
# [34] = Selectivity index, ratio of CC50 for human A549 cells to MIC for Aspergillus nidulans ATCC 38163; type: toxicity; settings: read-out: Selectivity Index
# [35] = Hemolytic activity in mouse RBC at 3.9 ug/ml after 1 hr relative to control; type: ADME, cell-based, Erythrocyte; settings: red blood cells (erythrocytes), read-out: Activity
# [36] = Selectivity index, ratio of compound concentration showing <20 to <30% hemolysis in mouse RBC to MIC for fluconazole/ITC-resistant Candida albicans ATCC 64124; type: toxicity; settings: red blood cells (erythrocytes), read-out: Selectivity Index
# [37] = Selectivity index, ratio of CC50 for human A549 cells to MIC for Candida glabrata ATCC 2001; type: toxicity; settings: read-out: Selectivity Index
# Aspergillus terreus = assay: Antifungal activity against Aspergillus terreus ATCC MYA-3633 measured after 48 hrs by CLSI M38-A2 protocol based method; type: functional; settings: ATCC MYA-3633, 48 h
# [38] = Selectivity index, ratio of compound concentration showing <20 to <30% hemolysis in mouse RBC to MIC for Aspergillus flavus ATCC MYA-3631; type: toxicity; settings: mouse red blood cells (RBC), read-out: Selectivity Index
# [39] = Selectivity index, ratio of compound concentration showing <20 to <30% hemolysis in mouse RBC to MIC for Candida parapsilosis ATCC 22019; type: toxicity; settings: mouse red blood cells (RBC), read-out: Selectivity Index
smiles,measurement,setting,value
Fc1ccc(N/N=C/c2ccc(-c3ccc(/C=N/Nc4ccc(F)cc4)cc3)cc2)cc1,selectivity ratio,[1],1 to 32
same,selectivity ratio,[2],0.6
same,"hemolysis at 1 h, 1.95 ug/ml",[3],1.1%
same,MIC,Candida albicans [4],31.3 µg/mL
same,CC50,BEAS-2B,8.5 µg/mL
same,"hemolysis at 1 h, 7.8 ug/ml",[5],3.2%
same,selectivity ratio,[6],1 to 32
same,"hemolysis at 1 h, […]",[7],0%
same,selectivity ratio,[8],1 to 32
same,selectivity ratio,[9],1 to 32
same,MIC,Candida albicans [10],7.8 µg/mL
same,selectivity ratio,[11],2.3
same,selectivity ratio,[12],1 to 32
same,selectivity ratio,[13],1 to 32
same,MIC,Candida albicans [14],15.6 µg/mL
same,MIC,Aspergillus flavus,7.8 µg/mL
same,"hemolysis at 1 h, 15.6 ug/ml",[15]; at 15.6 µg/mL,9%
same,"hemolysis at 1 h, 0.975 ug/ml",[15],0%
same,MIC,Nakaseomyces glabratus,15.6 µg/mL
same,MIC,Candida albicans [16],7.8 µg/mL
same,"hemolysis at 1 h, 31.3 ug/ml",[17],9.6%
same,selectivity ratio,[18],1 to 32
same,selectivity ratio,[19],1 to 32
same,MIC,Candida albicans [20],7.8 µg/mL
same,selectivity ratio,[21],1 to 32
same,selectivity ratio,[22],2.3
same,selectivity ratio,[23],1.1
same,MIC,Candida albicans [24],7.8 µg/mL
same,selectivity ratio,[25],2.3
same,MIC,Candida albicans [26],15.6 µg/mL
same,selectivity ratio,[27],1 to 32
same,MIC,Pichia kudriavzevii,1.95 µg/mL
same,"hemolysis at 1 h, 62.5 ug/ml",[28],28.3%
same,selectivity ratio,[29],1.1
same,CC50,A549,17.7 µg/mL
same,selectivity ratio,[30],2.3
same,MIC,Aspergillus nidulans,7.8 µg/mL
same,Activity,Enterococcus,inactive
same,Activity,Staphylococcus aureus,inactive
same,selectivity ratio,[31],0.6
same,selectivity ratio,[32],0.6
same,selectivity ratio,[33],9.1
same,MIC,Candida parapsilosis,31.3 µg/mL
same,Activity,Listeria monocytogenes,inactive
same,selectivity ratio,[34],2.3
same,"hemolysis at 1 h, 3.9 ug/ml",[35],0.7%
same,selectivity ratio,[36],1 to 32
same,selectivity ratio,[37],1.1
same,MIC,Aspergillus terreus,> 31.3 µg/mL
same,selectivity ratio,[38],1 to 32
same,selectivity ratio,[39],1 to 32
